Consider seven molecules from patent US20260207654A1, “HEPARAN SULFATE AND ITS MIMETICS AS CHEMOKINE INHIBITORS” (INDIAN INSTITUTE OF SCIENCE EDUCATION AND RESEARCH, priority 2021, published 2026).

Assay in all cases: Chemokine glycan microarray binding assay
Holding throughout (settings): maximum RFU set as 100% binding, average across 2 glycan concentrations and 3 chemokine dilutions (n=6)

One assay deals with T1, CCL28 (Homo sapiens, UniProt Q9NRJ3).
T1 sequence (Q9NRJ3 20-127): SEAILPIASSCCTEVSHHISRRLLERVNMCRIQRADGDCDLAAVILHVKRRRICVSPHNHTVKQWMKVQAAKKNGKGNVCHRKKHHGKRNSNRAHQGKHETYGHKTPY
On the procedure:
(§1) Microarray Studies: The compounds of the present invention were covalently immobilized on epoxy group collated glass slides. Slides were rehydrated with dH2O and incubated for 30 min in a staining dish with 50° C. prewarmed ethanolamine (0.05 M) in Tris-HCl (0.1 M, pH 9.0) to block the remaining reactive epoxy groups on the slide surface, then washed with 50° C. prewarmed dH2O. Slides were centrifuged at 200 g for 3 min, then fitted with the ProPlate Multi-Array 16-well slide module (Grace Bio-lab P37001) to divide into the subarrays (blocks). Slides were washed with PBST (0.1% Tween 20), aspirated, and blocked with 200 μL/subarray of blocking buffer (PBS pH 7.3+1% w/v ovalbumin) for 1 h at RT with gentle shaking. Next, the blocking solution was aspirated and 100 μL/block of primary chemokines diluted in PBS pH 7.3+1% w/v ovalbumin were incubated with gentle shaking for 2 hours at RT. Slides were washed 4 times with PBST, then with PBS (without Tween-20) for 2 min. Bound antibodies were detected by incubating with biotinylated secondary detections (1 ng/μL) diluted in PBS, 200 μL/block at RT for 1 h. Slides were washed 4 times with PBST, then with PBS (without Tween-20) for 2 min and biotinylated antibodies were detected with Cy3-SA ([…]). Slides were washed 4 times with PBST, then with PBS for 10 min followed by removal from the ProPlate Multi-Array slide module and immediately dipping in a staining dish with dH2O for 10 min with shaking. The slides were then centrifuged at 200 g for 3 min, and the dry slides immediately scanned. Binding was tested at three serial dilutions, then detected with the relevant biotinylated secondary antibody (1 μg/mL) followed by Cy3-strepavidin (1.5 μg/mL). Arrays were scanned and RFUs were calculated of chemokines binding to 100 μM glycans printed at four replicates. Rank binding of chemokines (each at three dilutions) to glycans printed at four replicates each was calculated and summarized in Table 1. For each binding assay per printed block, the maximum RFU was determined and set as 100% binding. Then, binding to all other glycans in the same block was ranked in comparison to the maximal binding, and average rank binding (and SEM) for each glycan across the three examined concentrations of each chemokine was calculated. This analysis allowed to compare the glycan-binding profiles of the different chemokines and dissect their binding preferences.
(§2) Table 1. Chemokine glycan microarray binding assay. Binding was tested at 3 serial dilutions, then detected with the relevant biotinylated secondary antibody (1 μg/ml) followed by Cy3-Strepavidin (1.5 μg/ml) (Table SX). Arrays were scanned, relative fluorescent units (RFU) obtained, and maximum RFU determined and set as 100% binding. Then rank binding (per printed glycan per concentration, per each chemokine dilution, per printed block) was determined. Since each glycans was printed at 2 concentration, 100% binding was set separately for each concentration. Then, binding to all the other glycans at the same concentration was ranked in comparison to the maximal binding, and the average rank binding and SEM for each glycan across the two glycan concentrations and three examined dilutions of each chemokine was calculated (n=6, 2 glycan concentrations across 3 chemokine dilutions). This analysis allowed to compare the glycan binding profiles of the different chemokines and dissect their binding preferences. The mean rank is shown as a heatmap of all the examined binding assays together (red highest, blue lowest and white 50th percentile of ranking).

For another assay, the target named is T2, CCL5 (Homo sapiens, UniProt P13501).
T2 sequence (P13501 24-91): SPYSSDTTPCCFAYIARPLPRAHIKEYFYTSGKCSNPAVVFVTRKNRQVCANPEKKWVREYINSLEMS
On the procedure:
as §1, §2

The target of another assay is T3, CXCL8 (Homo sapiens, UniProt P10145).
T3 sequence (P10145 21-99): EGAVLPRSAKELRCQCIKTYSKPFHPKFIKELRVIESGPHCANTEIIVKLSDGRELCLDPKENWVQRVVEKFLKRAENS
On the procedure:
as §1, §2

The target in another assay is CXCL12 (Homo sapiens, UniProt P48061). On the procedure: as §1, §2
Sequence of CXCL12 (P48061 22-93, species assumed): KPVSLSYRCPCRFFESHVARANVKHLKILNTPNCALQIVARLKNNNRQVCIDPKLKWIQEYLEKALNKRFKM
A further assay deals with CCL2 (Homo sapiens, UniProt P13500). On the procedure: as §1, §2
Sequence of CCL2 (P13500 24-99, species assumed): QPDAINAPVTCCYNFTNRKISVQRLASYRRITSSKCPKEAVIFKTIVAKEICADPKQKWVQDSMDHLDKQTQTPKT
The target in the next assay is CCL7 (Homo sapiens, UniProt P80098). On the procedure: as §1, §2
Sequence of CCL7 (P80098 24-99, species assumed): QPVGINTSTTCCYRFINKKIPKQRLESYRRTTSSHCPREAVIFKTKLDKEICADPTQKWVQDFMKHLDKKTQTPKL
The next assay addresses CCL13 (Homo sapiens, UniProt Q99616). On the procedure:
as §1, §2

Another assay has as its target T4, CCL21 (Homo sapiens, UniProt O00585).
T4 sequence (O00585 24-134): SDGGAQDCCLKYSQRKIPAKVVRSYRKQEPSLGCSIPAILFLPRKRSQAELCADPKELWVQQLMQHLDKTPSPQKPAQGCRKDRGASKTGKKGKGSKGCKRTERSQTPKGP
On the procedure: as §1, §2

For another assay, the target named is T5, CXCL10 (Homo sapiens, UniProt P02778).
T5 sequence (P02778 22-98): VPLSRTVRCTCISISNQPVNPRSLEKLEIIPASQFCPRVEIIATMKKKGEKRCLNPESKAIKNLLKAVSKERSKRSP
On the procedure: as §1, §2

Sequence of CCL13 (Q99616 17-98, species assumed): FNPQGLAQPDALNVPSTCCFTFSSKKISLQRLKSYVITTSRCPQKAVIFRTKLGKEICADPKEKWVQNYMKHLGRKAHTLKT

As to `NCCCO[C@@H]1O[C@@H](C(=O)O)[C@@H](O[C@H]2O[C@H](CO)[C@@H](O[C@@H]3O[C@@H](C(=O)O)[C@@H](O[C@H]4O[C@H](CO)[C@@H](O)[C@H](OS(=O)(=O)O)[C@H]4N)[C@H](O)[C@H]3OS(=O)(=O)O)[C@H](OS(=O)(=O)O)[C@H]2N)[C@H](O)[C@H]1OS(=O)(=O)O` [Example 18, 3-Aminopropyl-O-[(2-amino-3-O-sulfonato-2-deoxy-α-D-glucopyranosyl)-(1→4)-O-(2-O-sulfonato-α-L-idopyranosyluronate)-(1→4)-O-(2-amino-3-O-sulfonato-2-deoxy-α-D-glucopyranosyl)]-(1→4)-O-2-O-sulfonato-α-L-idopyranosiduronate], on CCL28, the “mean rank binding to CCL28” value came out at 66%. Besides, the “mean rank binding to CCL5” value on CCL5 was found to be 4%. Moreover, on CXCL8, the “mean rank binding to CXCL8” value is 9%. The “mean rank binding to CXCL12” value on CXCL12 is recorded as 45%. Besides, the “mean rank binding to CCL2” value on CCL2 was 1%. Also, the “mean rank binding to CCL7” value at CCL7 stood at 35%. In addition, on CCL13, the “mean rank binding to CCL13” value came out at 64%. On CCL21, the “mean rank binding to CCL21” value is reported as 48%. Moreover, at CXCL10, the “mean rank binding to CXCL10” value is listed as 27%.
Regarding “3-Aminopropyl-O-[(2-amino-2-deoxy-α-D-glucopyranosyl)-(1→4)-O-(2-O-sulfonato-α-L-idopyranosyluronate)-(1→4)-O-(2-amino-2-deoxy-α-D-glucopyranosyl)]-(1→4)-O-2-O-sulfonato-α-L-idopyranosiduronate [Example 13]”, the “mean rank binding to CCL28” value at CCL28 came out at 43%. Further, the “mean rank binding to CCL5” value at CCL5 is reported as 31%. Moreover, on CXCL8, the “mean rank binding to CXCL8” value was determined as 37%. Moreover, the “mean rank binding to CXCL12” value on CXCL12 was found to be 69%. The “mean rank binding to CCL2” value at CCL2 is 13%. Also, the “mean rank binding to CCL7” value at CCL7 is recorded as 56%. Also, the “mean rank binding to CCL13” value at CCL13 turned out to be 70%. For the same molecule, the “mean rank binding to CCL21” value at CCL21 stood at 69%. Further, at CXCL10, the “mean rank binding to CXCL10” value turned out to be 52%.
Take `NCCOCCO[C@@H]1O[C@@H](C(=O)O)[C@@H](O[C@@H]2O[C@@H](C(=O)O)[C@@H](OS(=O)(=O)O)[C@H](O)[C@H]2OS(=O)(=O)O)[C@H](O)[C@H]1OS(=O)(=O)O` [Example 6, Ethoxy-2-aminoethoxyl-O-((2,4-O-disulfonato)-α-L-idopyranosyl Uronic Acid-α(1→4)(2-sulfonato))-α-L-idopyroside Uronic Acid]: the “mean rank binding to CCL28” value on CCL28 is 84%. The “mean rank binding to CCL5” value at CCL5 was 38%. Also, at CXCL8, the “mean rank binding to CXCL8” value worked out at 73%. The “mean rank binding to CXCL12” value at CXCL12 turned out to be 79%. Besides, the “mean rank binding to CCL2” value on CCL2 is reported as 25%. Further, the “mean rank binding to CCL7” value at CCL7 is on record as 55%. Further, the “mean rank binding to CCL13” value on CCL13 came to 94%. The “mean rank binding to CCL21” value at CCL21 stood at 71%. Moreover, the “mean rank binding to CXCL10” value on CXCL10 was found to be 67%.
Consider `NCCOCCO[C@@H]1O[C@@H](C(=O)O)[C@@H](O[C@@H]2O[C@@H](C(=O)O)[C@@H](O[C@@H]3O[C@@H](C(=O)O)[C@@H](OS(=O)(=O)O)[C@H](O)[C@H]3OS(=O)(=O)O)[C@H](O)[C@H]2OS(=O)(=O)O)[C@H](O)[C@H]1OS(=O)(=O)O` [Example 9, Ethoxy-2-aminoethoxyl-O-(2,4-O-disulfonato)-α-L-idopyranosyl Uronic Acid-α(1→4)(2-O-sulfonato)-α-L-idopyranosyl uronic acid-α(1→4)(2-O-sulfonato)-α-L-idopyranoside Uronic Acid], for which the “mean rank binding to CCL28” value at CCL28 is 51%. The “mean rank binding to CCL5” value at CCL5 is 75%. Moreover, at CXCL8, the “mean rank binding to CXCL8” value is given as 71%. In addition, on CXCL12, the “mean rank binding to CXCL12” value is recorded as 75%. The “mean rank binding to CCL2” value on CCL2 worked out at 66%. For the same molecule, the “mean rank binding to CCL7” value on CCL7 is recorded as 94%. In addition, the “mean rank binding to CCL13” value at CCL13 came to 53%. For the same molecule, the “mean rank binding to CCL21” value on CCL21 worked out at 79%. The “mean rank binding to CXCL10” value at CXCL10 was 82%.
In the case of `CC(=O)NC1C(O)[C@H](O)C(CO)O[C@@H]1O[C@@H]1C(C(=O)O)O[C@@H](O[C@@H]2C(CO)O[C@H](O[C@@H]3C(C(=O)O)O[C@@H](OCCCN)C(OS(=O)(=O)O)C3O)C(NC(C)=O)C2O)C(OS(=O)(=O)O)C1O` (stereo partly drawn) [Example 14, 3-Aminopropyl-O-[(2-acetamido-2-deoxy-α-D-glucopyranosyl)-(1→4)-O-(2-O-sulfonato-α-L-idopyranosyluronate)-(1→4)-O-(2-acetamido-2-deoxy-α-D-glucopyranosyl)]-(1→4)-O-2-O-sulfonato-α-L-idopyranosiduronate], the “mean rank binding to CCL28” value on CCL28 is given as 21%. On CCL5, the “mean rank binding to CCL5” value was found to be 1%. The “mean rank binding to CXCL8” value at CXCL8 is on record as 2%. Also, the “mean rank binding to CXCL12” value at CXCL12 is listed as 11%. In addition, on CCL2, the “mean rank binding to CCL2” value is 0%. Moreover, the “mean rank binding to CCL7” value at CCL7 was determined as 1%. Moreover, the “mean rank binding to CCL13” value on CCL13 amounted to 21%. Besides, the “mean rank binding to CCL21” value at CCL21 amounted to 23%. Besides, on CXCL10, the “mean rank binding to CXCL10” value was found to be 11%.
For the molecule `NCCOCCO[C@@H]1O[C@@H](C(=O)O)[C@@H](O[C@@H]2O[C@@H](C(=O)O)[C@@H](OS(=O)(=O)O)[C@H](O)[C@H]2O)[C@H](O)[C@H]1O` [Example 5, Ethoxy-2-aminoethoxyl-O-((4-O-sulfonato)-α-L-idopyranosyl Uronic Acid-α(1→4))-α-L-idopyranoside Uronic Acid], the “mean rank binding to CCL28” value on CCL28 is reported as 80%. Besides, the “mean rank binding to CCL5” value on CCL5 was determined as 15%. Further, at CXCL8, the “mean rank binding to CXCL8” value was 62%. Further, the “mean rank binding to CXCL12” value on CXCL12 is 64%. For the same molecule, the “mean rank binding to CCL2” value on CCL2 came out at 23%. Moreover, on CCL7, the “mean rank binding to CCL7” value came out at 58%. In addition, the “mean rank binding to CCL13” value on CCL13 is recorded as 81%. For the same molecule, on CCL21, the “mean rank binding to CCL21” value is reported as 62%. Moreover, the “mean rank binding to CXCL10” value on CXCL10 is given as 57%.
As to `CC(=O)NC1C(O)[C@H](O)C(COS(=O)(=O)O)O[C@@H]1O[C@@H]1C(C(=O)O)O[C@@H](O[C@@H]2C(COS(=O)(=O)O)O[C@H](O[C@@H]3C(C(=O)O)O[C@@H](OCCCN)C(OS(=O)(=O)O)C3O)C(NC(C)=O)C2O)C(OS(=O)(=O)O)C1O` (stereo partly drawn) [Example 20, 3-Aminopropyl-O-[(2-acetamido-6-O-sulfonato-2-deoxy-α-D-glucopyranosyl)-(1→4)-O-(2-O-sulfonato-α-L-idopyranosyluronate)-(1→4)-O-(2-acetamido-6-O-sulfonato-2-deoxy-α-D-glucopyranosyl)]-(1→4)-O-2-O-sulfonato-α-L-idopyranosiduronate], the “mean rank binding to CCL28” value on CCL28 is 66%. In addition, the “mean rank binding to CCL5” value on CCL5 came to 54%. The “mean rank binding to CXCL8” value at CXCL8 amounted to 53%. The “mean rank binding to CXCL12” value at CXCL12 is 69%. The “mean rank binding to CCL2” value at CCL2 was 30%. Besides, at CCL7, the “mean rank binding to CCL7” value was found to be 86%. Further, at CCL13, the “mean rank binding to CCL13” value stood at 79%. Further, the “mean rank binding to CCL21” value at CCL21 amounted to 71%. The “mean rank binding to CXCL10” value on CXCL10 was 64%.
